Measurements taken from US10980818B2, “Methods for treating ocular inflammatory diseases” (SUN PHARMA GLOBAL FZE, priority 2009, dated 2021).

Assay: Release of fluorometholone from the gel in the rabbit eye, measured in the aqueous humor
Type: in vivo
Conditions: measured by fluorometholone contained in the aqueous humor; from the gel of the aqueous polymer suspension
Protocol: The viscous gels that result from fluid eyedrops delivered by means of the aqueous suspensions of this invention have residence times in the eye ranging from about 2 to about 12 hours, e.g., from about 3 to about 6 hours. The active ingredients contained in these ophthalmically acceptable vehicles can be released from the gels at rates that depend on such factors as the active ingredient itself and its physical form, the extent of drug loading and the pH of the system, as well as on any drug delivery adjuvants, such as ion exchange resins compatible with the ocular surface, which can also be present.

CC(=O)[C@@]1(O)CC[C@H]2[C@@H]3C[C@H](C)C4=CC(=O)C=C[C@]4(C)[C@@]3(F)[C@@H](O)C[C@@]21C [fluorometholone]
Release rates in the rabbit eye: in excess of four hours
